Results: paper PMC8113459, “Selective inhibition of cullin 3 neddylation through covalent targeting DCN1 protects mice from acetaminophen-induced liver toxicity” (Nature Communications, 2021)
Several values for one entry are separate records, joined by “and”; a condition that tells them apart may be missing. Equal values may be shown once. Read-outs that look alike come from different tables or passages of the source.

Legend:
[1] = Cell viability assay (WST-8), MDA-MB-231; format: cell-based, human; details: human, MDA-MB-231 cells, replicates, read-out: cell viability relative to control
Outline: (§1)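 Cells (2000–3000 per well) were treated with serial dilutions of DCN1 inhibitors for 3 days, then incubated 1–3 h with WST-8 and absorbance read at 450 nm. Growth inhibition was sample-to-control absorbance ratio, with EC50 from fitted curves.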

[2] = system: MDA-MB-231 cells; assay: Cell viability assay (WST-8), MDA-MB-231; format: cell-based, human; details: for cell viability relative to control: replicates
Outline: as §1

[3] = biological target: DCN1 (Homo sapiens, UniProt Q96GG9); assay: BLI assay; format: binding; set-up: biotin (chemical labelling, EZ-Link long-chain reagent)
Chain of DCN1 (Q96GG9 whole entry): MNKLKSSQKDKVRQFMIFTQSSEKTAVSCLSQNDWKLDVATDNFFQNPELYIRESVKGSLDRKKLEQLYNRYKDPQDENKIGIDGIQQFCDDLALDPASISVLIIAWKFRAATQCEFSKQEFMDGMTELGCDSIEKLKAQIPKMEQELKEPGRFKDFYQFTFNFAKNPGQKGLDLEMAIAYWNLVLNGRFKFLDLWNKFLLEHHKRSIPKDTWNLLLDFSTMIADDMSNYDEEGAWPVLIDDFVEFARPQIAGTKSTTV
Protocol: BLI experiments were performed using an OctetRED96 instrument from PALL/ForteBio, as previously described. All assays were run at 30 °C using PBS (pH 7.4) as the assay buffer, in which 0.1% BSA, 0.01% Tween-20, and 2% DMSO were added. DCN1 protein was biotinylated using the Thermo EZ-Link long-chain biotinylation reagent. Biotinylated DCN1 protein was tethered on super streptavidin biosensors (ForteBio) by dipping sensors into 10 µg/mL protein solutions. To eliminate loose nonspecific bound protein and establish a stable base line, sensors with proteins were moved and dipped into wells with pure assay buffer and equilibrated in the buffer for 10 min. Association–dissociation cycles were performed by moving and dipping sensors into compound solution wells then into pure buffer wells. DMSO-only reference was included in all assays.

[4] = system: four cancer cell lines; assay: Cell viability assay (WST-8), four cancer cell lines; format: cell-based, human; details: concentrations up to 1000 nM, 72 h
Protocol: Cell viability assay was performed as previously described. The effect of DCN1 inhibitors on cell growth was evaluated by a WST-8 [2-(2-methoxy-4-nitrophenyl)-3-(4-nitrophenyl)-5-(2,4-disulfophenyl)-2H-tetrazolium, monosodium salt assay (Dojindo Molecular Technologies, Inc). Cells (2000–3000 cells in each well) were seeded in 96-well tissue culture plates in medium (100 μL) and treated with serial dilution of DCN1 inhibitors for 3 days. At the end of incubation, WST-8 dye (20 μL) was added to each well and incubated for 1–3 h, then the absorbance was measured in a microplate reader (Molecular Devices) at 450 nm. Cell growth inhibition was evaluated as the ratio of the absorbance of the sample to that of the control. The values were inserted into Prism software, and the curves and the EC50 values were produced by Prism software.

[5] = biological target: T1, cellular DCN3 protein in U2OS cells (Homo sapiens, UniProt Q8IWE4); assay: Cellular thermal shift assay (CETSA), DCN3; format: cell-based; details: concentrations up to 1000 nM
T1 construct: endogenous in cells; host or cells: U2OS
T1 sequence (Q8IWE4 whole entry): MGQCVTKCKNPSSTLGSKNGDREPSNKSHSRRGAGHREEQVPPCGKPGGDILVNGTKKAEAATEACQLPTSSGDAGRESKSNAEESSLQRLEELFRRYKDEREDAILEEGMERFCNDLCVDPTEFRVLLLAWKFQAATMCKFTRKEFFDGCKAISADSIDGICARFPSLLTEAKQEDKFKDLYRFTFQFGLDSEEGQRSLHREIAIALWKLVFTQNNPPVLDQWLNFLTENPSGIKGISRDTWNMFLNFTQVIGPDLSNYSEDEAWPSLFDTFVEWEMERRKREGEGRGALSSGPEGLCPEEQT
Protocol: CETSA was performed as previously described. The U2OS cells (5 × 10^5 per sample) were treated with compounds or with DMSO for 1 h, washed with PBS for three times, and dissolved in 50 µL PBS supplemented with protease inhibitor, followed by heating at 53 °C in a Mastercycler gradient (Eppendorf, New York, USA). Treated cells were then subjected to snap-freezing in liquid nitrogen and thawed on ice for three cycles. The protein level of DCN1 and DCN3 in equal amount of the supernatant was examined by western blot methods. GAPDH was used as a control. Results are representative of three independent experiments.

[6] = system: NQO1 mRNA; assay: RT-PCR, NQO1 mRNA in THLE2 cells; format: cell-based, human; details: for NQO1 mRNA level relative to control: THLE2, 10 nM, replicates
Protocol: Supplementary Figure 23. DI‐1859 increases the mRNA level of NRF2 ta rge te d genes NQO1 and
HO‐1. THLE2 cells we re treated with DI‐1859 at 10 nM fo r 4, 8 and 24 h. Tr e a t e d cells were
harvested and the mRNA level of HO‐1 and NQO1 we re exa m i n e d by RT‐PCR assay. The probes
Scientific (Ann Arbor, MI). Data are presented as mean values with n = 2 independent biological […]

[7] = system: neddylation of cullin 3; assay: Western blot, cullin 3 neddylation in THLE2 liver cells; format: cell-based, human
Protocol: Western blotting was performed as described previously. Treated cells were lysed by RIPA buffer supplemented with protease inhibitor. The expression level of indicated proteins was examined by immunoblotting analysis and GAPDH was used as the loading control. Antibodies were purchased commercially: cullin 1 (sc-17775, 1:500 dilution) and cullin 2 (sc-166506, 1:500 dilution) from Santa Cruz Biotech (Santa Cruz, CA); cullin 4A (PA5-14542, 1:1000 dilution), cullin 4B (PA5-50647, 1:1000 dilution), and DCN3 (DCUN1D3, PA5-44000, 1:1000 dilution) from Thermo Fisher Scientific (Wayne, MI); cullin 3 (2759, 1:1000), NRF2 (12721, 1:1000 dilution), HO-1 (70081, 1:1000 dilution), and Bim (2819, 1:1000 dilution) from Cell Signaling Technology (Boston, MA); DCN1 (GWB-E3D700, 1:1000 dilution) from GenWay Biotech (San Diego, CA); and cullin 5 (A302-173A, 1:500 dilution) from Bethyl Labs (Montgomery, TX). Results are representative of two independent experiments.

| EC50 ([2]; Homo sapiens, MDA-MB-231, 72 h, cell line assigned from panel order, read-out: EC50, cell growth inhibition) [µM] | dissociation phase of the complex with DCN1 [3] | concentration at which the BLI signal reaches near its maximum ([3]; 1.56 to 100 nM tested) [nM] | effect on the thermal stability of cellular DCN3 protein [5] | SMILES | viability at 72 h ([1]; conc 30, 72 h) [%] | viability at 72 h ([1]; conc 100, 72 h) [%] | cell viability relative to control ([2]; conc 10, 72 h) | cell viability relative to control ([2]; conc 30, 72 h) | cell viability relative to control ([2]; conc 100, 72 h) | cell viability relative to control ([2]; conc 300, 72 h) | cell viability relative to control ([2]; conc 1000, 72 h) | cytotoxicity / cell viability [4] | NQO1 mRNA level relative to control ([6]; 4 h (time from row order and b199)) | NQO1 mRNA level relative to control ([6]; 8 h (time from row order and b199)) | NQO1 mRNA level relative to control ([6]; 24 h (time from row order and b199)) | increase of NQO1 mRNA level ([6]; THLE2 liver cells, qRT-PCR) [folds] | times more potent than MLN4924 in inhibition of the neddylation of cullin 3 [7] |
| --- | --- | --- | --- | --- | --- | --- | --- | --- | --- | --- | --- | --- | --- | --- | --- | --- | --- |
| > 1 | no dissociation phase | 25 | no discernible effect | C=C(CN1CCOCC1)C(=O)NC[C@@H](NC(=O)[C@H](Cc1nc2ccc(C(C)C)cc2s1)NC(=O)CC)C1CCCCC1 [DI-1548] | 105 | 97.2 | 103.908 and 110.805 and 88.1609 | 104.754 and 102.705 | 102.874 and 99.4253 | 87.0115 and 106.207 and 84.7126 | 77.0115 and 107.241 and 112.414 | no cytotoxicity | – | – | – | – | – |
| – | – | – | – | C=C(CN(C)C)C(=O)NC[C@@H](NC(=O)[C@H](Cc1nc2ccc(C(C)C)cc2s1)NC(=O)CC)C1CCCCC1 [DI-1859] | – | – | – | – | – | – | – | – | 2.3 and 2 | 2.7 and 2.6 | 19.3 and 16 | 17 | ~ 30 times |
